Species on record: Rattus norvegicus
Assay: DrugMatrix - Regimen: Daily Repeat
Assay type: toxicity, organism-based, Sprague-Dawley
Set-up: regimen Daily Repeat, gender Male, age 6-8 weeks
Conditions: in vivo, sc, route subcutaneous, […]; for ABSOLUTE BASOPHIL / ABSOLUTE EOSINOPHIL / ABSOLUTE LYMPHOCYTE / ABSOLUTE MONOCYTE / ABSOLUTE SEGMENTED NEUTROPHIL / BASOPHIL / EOSINOPHIL / ERYTHROCYTE COUNT / HEMATOCRIT / HEMOGLOBIN / LEUKOCYTE COUNT / LYMPHOCYTE / MEAN CORPUSCULAR HEMOGLOBIN / MEAN CORPUSCULAR HEMOGLOBIN CONCENTRATION / MEAN CORPUSCULAR VOLUME / MONOCYTE / NEUTROPHIL / NUCLEATED RED BLOOD CELLS / PLATELET COUNT: tissue Blood; for ALANINE AMINOTRANSFERASE / ALBUMIN / ALKALINE PHOSPHATASE / ASPARTATE AMINOTRANSFERASE / BLOOD UREA NITROGEN / CARBON DIOXIDE / CHLORIDE / CHOLESTEROL / CREATINE PHOSPHOKINASE / CREATININE / GLUCOSE / LACTATE DEHYDROGENASE / LIPASE / PHOSPHORUS / POTASSIUM / SODIUM / TOTAL BILIRUBIN / TOTAL PROTEIN / URIC ACID: tissue Plasma
[1] = 0 mg/kg, 72 h, dose level Control, time 3 day
[2] = 0 mg/kg, 120 h, dose level Control, time 5 day
[3] = 2 mg/kg, 72 h, dose level Low, time 3 day

## CCC(=O)O[C@]1(C(=O)CCl)[C@@H](C)C[C@H]2[C@@H]3CCC4=CC(=O)C=C[C@]4(C)[C@@]3(F)[C@@H](O)C[C@@]21C [CLOBETASOL PROPIONATE]
[1]
  ABSOLUTE BASOPHIL: 0 CELLS/uL
  ABSOLUTE EOSINOPHIL: 42.67 CELLS/uL
  ABSOLUTE LYMPHOCYTE: 10202 CELLS/uL
  ABSOLUTE MONOCYTE: 261.5 CELLS/uL
  ABSOLUTE SEGMENTED NEUTROPHIL: 2193.83 CELLS/uL
  BASOPHIL: 0%
  EOSINOPHIL: 0.33%
  ERYTHROCYTE COUNT: 5.63 x10E6/uL
  HEMATOCRIT: 35.35%
  HEMOGLOBIN: 13.07 G/DL
  LEUKOCYTE COUNT: 12.7 x10E3/uL
  LYMPHOCYTE: 81.17%
  MEAN CORPUSCULAR HEMOGLOBIN: 23.23 pg
  MEAN CORPUSCULAR HEMOGLOBIN CONCENTRATION: 36.97 G/DL
  MEAN CORPUSCULAR VOLUME: 62.82 fL
  MONOCYTE: 2%
  NEUTROPHIL: 16.5%
  NUCLEATED RED BLOOD CELLS: 0 /100WBC
  PLATELET COUNT: 1180.33 x10E3/uL
  ALANINE AMINOTRANSFERASE: 48.67 u/L
  ALBUMIN: 4.08 G/DL
  ALKALINE PHOSPHATASE: 360.67 u/L
  ASPARTATE AMINOTRANSFERASE: 85.5 u/L
  BLOOD UREA NITROGEN: 17.83 mg/dL
  CARBON DIOXIDE: 26.17 mmol/L
  CHLORIDE: 101.83 MEQ/L
  CHOLESTEROL: 71 mg/dL
  CREATINE PHOSPHOKINASE: 515.17 u/L
  CREATININE: 0.22 mg/dL
  GLUCOSE: 192.5 mg/dL
  LACTATE DEHYDROGENASE: 214.67 u/L
  LIPASE: 8.5 u/L
  PHOSPHORUS: 12.95 mg/dL
  POTASSIUM: 6.39 MEQ/L
  SODIUM: 142.38 MEQ/L
  TOTAL BILIRUBIN: 0.18 mg/dL
  TOTAL PROTEIN: 5.95 G/DL
  URIC ACID: 1.83 mg/dL
[2]
  ABSOLUTE BASOPHIL: 0 CELLS/uL
  ABSOLUTE EOSINOPHIL: 188.5 CELLS/uL
  ABSOLUTE LYMPHOCYTE: 12360.83 CELLS/uL
  ABSOLUTE MONOCYTE: 64.33 CELLS/uL
  ABSOLUTE SEGMENTED NEUTROPHIL: 1986.33 CELLS/uL
  BASOPHIL: 0%
  EOSINOPHIL: 1.33%
  ERYTHROCYTE COUNT: 5.52 x10E6/uL
  HEMATOCRIT: 35.82%
  HEMOGLOBIN: 13.25 G/DL
  LEUKOCYTE COUNT: 14.6 x10E3/uL
  LYMPHOCYTE: 84.5%
  MEAN CORPUSCULAR HEMOGLOBIN: 24.05 pg
  MEAN CORPUSCULAR HEMOGLOBIN CONCENTRATION: 36.98 G/DL
  MEAN CORPUSCULAR VOLUME: 64.97 fL
  MONOCYTE: 0.5%
  NEUTROPHIL: 13.67%
  NUCLEATED RED BLOOD CELLS: 0 /100WBC
  PLATELET COUNT: 1297.83 x10E3/uL
  ALANINE AMINOTRANSFERASE: 51.17 u/L
  ALBUMIN: 4.08 G/DL
  ALKALINE PHOSPHATASE: 393.17 u/L
  ASPARTATE AMINOTRANSFERASE: 111 u/L
  BLOOD UREA NITROGEN: 18.17 mg/dL
  CARBON DIOXIDE: 25 mmol/L
  CHLORIDE: 105.17 MEQ/L
  CHOLESTEROL: 65.5 mg/dL
  CREATINE PHOSPHOKINASE: 911.5 u/L
  CREATININE: 0.21 mg/dL
  GLUCOSE: 183 mg/dL
  LACTATE DEHYDROGENASE: 189 u/L
  LIPASE: 8.33 u/L
  PHOSPHORUS: 12.78 mg/dL
  POTASSIUM: 6.05 MEQ/L
  SODIUM: 144.57 MEQ/L
  TOTAL BILIRUBIN: 0.25 mg/dL
  TOTAL PROTEIN: 5.83 G/DL
  URIC ACID: 1.58 mg/dL
[3]
  ABSOLUTE BASOPHIL: 0 CELLS/uL
  ABSOLUTE EOSINOPHIL: 0 CELLS/uL
  ABSOLUTE LYMPHOCYTE: 788.33 CELLS/uL
  ABSOLUTE MONOCYTE: 9 CELLS/uL
  ABSOLUTE SEGMENTED NEUTROPHIL: 1836 CELLS/uL
  BASOPHIL: 0%
  EOSINOPHIL: 0%
  ERYTHROCYTE COUNT: 5.93 x10E6/uL
  HEMATOCRIT: 37.1%
  HEMOGLOBIN: 13.23 G/DL
  LEUKOCYTE COUNT: 2.63 x10E3/uL
  LYMPHOCYTE: 30%
  MEAN CORPUSCULAR HEMOGLOBIN: 22.33 pg
  MEAN CORPUSCULAR HEMOGLOBIN CONCENTRATION: 35.67 G/DL
  MEAN CORPUSCULAR VOLUME: 62.57 fL
  MONOCYTE: 0.33%
  NEUTROPHIL: 69.67%
  NUCLEATED RED BLOOD CELLS: 0 /100WBC
  PLATELET COUNT: 1219.67 x10E3/uL
  ALANINE AMINOTRANSFERASE: 121.33 u/L
  ALBUMIN: 4.93 G/DL
  ALKALINE PHOSPHATASE: 505.33 u/L
  ASPARTATE AMINOTRANSFERASE: 281.67 u/L
  BLOOD UREA NITROGEN: 25.67 mg/dL
  CARBON DIOXIDE: 21.33 mmol/L
  CHLORIDE: 99.33 MEQ/L
  CHOLESTEROL: 138.33 mg/dL
  CREATINE PHOSPHOKINASE: 1714.67 u/L
  CREATININE: 0.33 mg/dL
  GLUCOSE: 547 mg/dL
  LACTATE DEHYDROGENASE: 291 u/L
  LIPASE: 10 u/L
  PHOSPHORUS: 12.6 mg/dL
  POTASSIUM: 5.98 MEQ/L
  SODIUM: 140.33 MEQ/L
  TOTAL BILIRUBIN: 0.2 mg/dL
  TOTAL PROTEIN: 7.07 G/DL
  URIC ACID: 2.33 mg/dL

From ChEMBL document CHEMBL3885881, “DrugMatrix”
